Experimental data from ChEMBL document CHEMBL1158002, “Aurantoside C, a new tetramic acid glycoside from the sponge Homophymia conferta” (J Nat Prod, 1999).
≈ marks a conversion by molar mass, not a printed value.

Assay: Toxicity against brine shrimp
Format: organism-based
Details: artemia, in vivo

C/C(Cl)=C/C=C/C(Cl)=C/C=C/C=C/C=C/C=C/C(O)=C1\C(=O)[C@H](CC(N)=O)N([C@@H]2OC[C@@H](O)[C@H](O)[C@H]2O[C@@H]2O[C@H](CO)[C@@H](O[C@@H]3O[C@H](C)[C@@H](O)[C@@H]3O)[C@@H]2O)C1=O [AURANTOSIDE C]
LC50: 50 µg/mL (≈ 60.3 µM)
